In US10857105B2, “Compounds and compositions for intracellular delivery of therapeutic agents” (ModernaTX, Inc., priority 2017, dated 2020):

Assays:
modified luciferase = test: Luciferase expression in liver, lung, spleen and femur 6 hours after intravenous administration to mice; format: in vivo; conditions: 6 hours after intravenous 0.5 mpk, mice
Summary of the method: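 Mice (n=3) got a single 0.5 mpk IV dose of each nanoparticle composition, with MC3 and PBS controls alongside. Organ luminescence flux was read 6 h post-dose.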

[1] = Chemical stability of lipids in ethanol at room temperature and 37° C. (lipid purity); format: physicochemical
Protocol: Ester linkages were previously reported to trigger metabolism by esterases in vivo. (See Fukami, T. et al. Drug Metab. Pharmacokinet. 2012, 27, 466-477, the content of which is incorporated by reference herein in its entirety). […] (See Maier M. A., Mol. Ther. 2013, 21, 1570-1578, the content of which is incorporated herein in its entirety) First, the chemical stability of the lipids was evaluated by measuring ethanol stability at room temperature and 37° C. (Table 39). […] LNPs formed with compound 138 were larger, with a surface pKa>7. […] Removal of one ester function (compound 136) afforded LNPs with improved physiochemical characteristics and lower LNP surface pKa.

IL-6, IP-10 = test: Cytokine induction (IL-6, IP-10) in mice 6 hours after intravenous administration; format: in vivo; set-up: unit not given here; conditions: intravenous 0.5 mpk
Summary of the method: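 IL-6 and IP-10 concentrations determined 6 hours after a single intravenous 0.5 mpk dose of lipid nanoparticle formulation in mice, with MC3 and PBS as comparators.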

[2] = Encapsulation efficiency of RNA in nanoparticle compositions (RIBOGREEN assay); format: physicochemical; conditions: Table 1A; lipid:DSPC:cholesterol:PEG-DMG 50:10:38.5:1.5 mol %
Summary of the method: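 Lipid nanoparticles (ionisable lipid:DSPC:cholesterol:PEG-DMG 50:10:38.5:1.5 mol %) carrying N1-methylpseudouridine luciferase or hEPO mRNA diluted to about 5 μg/mL in TE, pH 7.5, with or without 2% Triton X-100, 15 min at 37° C. RiboGreen fluorescence (ex ~480, em ~520 nm) blank-subtracted; free RNA = intact/disrupted signal.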

hEPO mRNA = test: hEPO expression after intravenous administration to rats; format: in vivo, rat; conditions: rats, 6 hours; for Lipid/MC3 hEPO conc. ratio, 0.2 mpk: intravenous 0.2 mpk; for Lipid/MC3 hEPO conc. ratio, 2 mpk: intravenous 2 mpk
Protocol: The expression of hEPO and cytokine induction in rats intravenously administered a nanoparticle composition at a dose of 2.0 mpk was measured at 6 h.
(§1) The expression of hEPO in rats intravenously administered a nanoparticle composition at a dose of 0.2 mpk or 2.0 mpk was measured at 6 hours. Table 16 summarize the ratio of hEPO expression levels using various nanoparticle compositions as compared to the hEPO expression level using MC3 formulation and the lipid levels in the liver measured 48 hours after administration, as described above. Tables 17 and 18 summarize the lipid levels in the liver and spleen measured 48 hours after administration of Compounds 28, 33, 53, and 54. Liver and spleen levels represent the average values calculated for 3 rats in each group. As is shown in Tables 17 and 18, less than 10% of Compounds 28, 33, 53, and 54 remained in the liver after 48 hours, while greater than 60% of MC3 remained.
(§2) Table 19A summarizes the hEPO expression, IP-10 induction, liver and spleen levels, and alanine aminotransferase (ALT) and aspartate aminotransferase (AST) measured upon intravenous administration of formulations including Compounds 48, 49, and 50 to rat at 0.2 and 2 mpk and hEPO mRNA. hEPO concentrations were measured 6 hours after administration, while cytokine induction and liver and spleen levels were measured 48 hours after administration. hEPO and IP-10 concentrations are presented in pg/ml, while liver levels are provided in ng/g. ALT and AST levels are presented in international units.
The expression of hEPO induced by intravenous administration to rats of nanoparticle compositions at various doses was measured at 2, 4, 6, 8, 24, and 48 hour time points. FIGS. 3-6 respectively summarize the hEPO expression measured upon intravenous administration of formulations including Compounds 26, 18, 25, and MC3 to rat at various doses. The lipid levels of Compound 26 in the liver after 48 hours were about 19%.
(§3) The expression of hEPO and lipid levels in the liver and spleen in rats intravenously administered a nanoparticle composition at a dose of 0.2 mpk was measured at various time points. Compounds 18 and 25 were selected for comparison with MC3. Lipids were formulated according to the standard MC3 formulation described above. Rats were administered intravenously a single 0.2 mpk dose and expression monitored at 0.25, 0.5, 1, 2, 4, 8, 24, and 48 hours after administration.

[3] = Particle size and polydispersity index of nanoparticle compositions (Zetasizer Nano ZS); format: physicochemical
Summary of the method: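 Formulations of ionizable lipid, DSPC, cholesterol and PEG-DMG (50:10:38.5:1.5 mol %) carrying Luc or hEPO mRNA with all uridines as N1-methyl pseudouridine. Dynamic light scattering in 1×PBS gave particle size and polydispersity; zeta potential read in 15 mM PBS.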

[4] = Residual lipid levels in rat liver and spleen (UPLC-MS); format: in vivo; conditions: rats, 2 mpk, 48 h; assuming 300 g rat and 15 g liver
Protocol: At 48 h liver tissue was harvested for lipid quantification. To pre-weighed tissues, Milli-Q water was added (900 μL water per 100 mg tissue). Tissues were homogenized using an Omni probe homogenizer until uniform. 50 μL of samples and matrix calibration standards were aliquoted into a 96-well plate. 50 μL of blank matrix for matrix blanks and control blanks were aliquoted. 400 μL IS spiking solution were manually added to all samples except matrix blanks. 400 μL of 50:50 ACN:IPA were manually added to matrix-blanks. The plate was covered and the samples vortexed and centrifuged for 5 minutes at >3000 rpm. 200 μL of the samples were transferred into a clean 96-well plate for analysis. Samples were analyzed on a Waters Acquity UPLC using a Higgins Analytical Clipeus C8 column ([…], 30×2.1 mm) and a gradient of either 70-95% or 60-95% (Mobile Phase A: 5 mM ammonium formate in 50:50:1 H2O:MeOH:formic acid; Mobile Phase B: 5 mM ammonium formate in 100:1 MeOH:formic acid) over 1.3 min at […] (column temperature 55° C.). Detection was based on electrospray ionization (ESI) in positive mode using a Sciex API5500 Mass Spectrometer.
as §1, §2, §3

luciferase (Luc) mRNA = test: Luciferase expression (whole body bioluminescence) after intravenous administration to mice; format: in vivo; conditions: Table 3G, intravenous, luciferase, 6 hr. timepoint, relative to MC3
Summary of the method: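 Luc mRNA nanoparticles were given IV at 0.5 mg/kg to groups of six mice, and whole-body bioluminescent flux was imaged 3, 6 and 24 h post-dose. Flux AUC for each lipid formulation was reported as a ratio to the MC3 reference formulation.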

[5] = Lipid clearance: mouse liver tissue level and % dose remaining in liver after intravenous administration; format: in vivo; conditions: mouse, liver, 0.5 mg/kg
CD-1 mice = test: Luciferase expression after intravenous delivery of luciferase mRNA LNPs (bioluminescent imaging); format: in vivo; conditions: intravenous 0.5 mg/kg mRNA dose
Protocol: Whole body and ex vivo organ bioluminescent imaging of mice: CD-1 mice were injected 15 minutes prior to the imaging timepoint intraperitoneally (IP) with 200 μL Xenolight D-luciferin K+ salt, diluted in PBS just prior to use to a concentration of 15 mg/mL. Ex vivo imaging of organs was completed, within 25 minutes of luciferin administration. All images were quantified by region of interest for total flux.
[…] […] (See Semple, S.C. et al., Nature Biotech. 2010. 28, 172-176, Jayaraman, M., et al. Angew. Chem. Int. Ed. 2012, 51, 8529-8533, the entire contents of each of which are incorporated by reference herein in their entireties). To evaluate the efficiency of the new amino lipids, LNPs using the novel compounds were tested in vivo in mice using luciferase mRNA as a reporter. An MC3 LNP was included as a control in each experiment, enabling the comparison of LNPs from experiment to experiment. Measured luciferase activity also enabled the determination of protein bio-distribution.

[6] = Table 1A, lipid:DSPC:cholesterol:PEG-DMG 50:10:38.5:1.5 mol %
[7] = Table 1D, compositions for subcutaneous administration, # formulated with hEPO mRNA

Lipid Purity, t = 96 h, 25° C. [1] [%]	Lipid Purity, t = 96 h, 37° C. [1] [%]	Lipid Purity, t = 0 [1] [%]	Cytokine induction, IL-6 (IL-6, IP-10)	Cytokine induction, IP-10 (IL-6, IP-10)	EE [2] [%]	Size [3, 6] [nm]	Size [3, 7] [nm]	concentration at 6 h [5] [ng/g]	concentration at 24 h [5] [ng/g]	Compound	Total Flux, Femur (modified luciferase)	Total Flux, Liver (modified luciferase)	Total Flux, Lung (modified luciferase)	Total Flux, Spleen (modified luciferase)	Novel lipid/MC3 ratio, i.v. (luciferase (Luc) mRNA)	other results
98.64	97.82	97.59	23.38	172.56	91.8	–	–	–	–	CCCCCCCCCOC(=O)CCCCCCCN(CCO)CCCCCCCC(=O)OCCCCCCCCC [compound 138, Dinonyl 8,8′-((2-hydroxyethyl)azanediyl)dioctanoate]	1.58E+05	3.66E+06	9.47E+04	4.04E+06	–	–
–	–	–	–	–	–	88	74.0	–	–	CCCCCCCCC(CC)OC(=O)CCCCCCCN(CCO)CCCCCCCC(=O)OC(CCCCCCCC)CCCCCCCC (stereo not drawn) [Compound 49, heptadecan-9-yl 8-((2-hydroxyethyl)(8-oxo-8-(undecan-3-yloxy)octyl)amino)octanoate]	–	5.68E+09	2.52E+07	1.87E+08	–	Lipid/MC3 hEPO conc. ratio, 0.2 mpk (hEPO mRNA): 4.13; Lipid/MC3 hEPO conc. ratio, 2 mpk (hEPO mRNA): 3.28; % Lipid Remaining in liver, 48 h, 2 mpk [4]: 12.6%
–	–	–	–	–	92.9	84.6	74.3	26900	11700	CCCCCCCCCC(=O)OC(C)CCCCCCN(CCO)CCCCCCCOC(=O)C(CCCCCCCC)CCCCCCCC (stereo not drawn) [Compound 165, 7-((7-(Decanoyloxy)octyl)(2-hydroxyethyl)amino)heptyl 2-octyldecanoate]	–	–	–	–	2.12	–
–	–	–	–	–	94.4	–	74.8	24800	13600	CCCCCCCCCC(=O)OC(C)CCCCCCN(CCO)CCCCCCCC(=O)OC(CCCCCCCC)CCCCCCCC (stereo not drawn) [Compound 98, 8-((8-(Heptadecan-9-yloxy)-8-oxooctyl)(2-hydroxyethyl)amino)octan-2-yl decanoate]	–	–	–	–	3.16	–
95.15	96.47	95.17	–	–	–	–	–	–	–	CCCCCCCCCOC(=O)CCCCCCCN(CCCCCCCC(=O)OC(CCCCCCCC)CCCCCCCC)CCCNC(=O)C(C)(C)COC [compound 281, Heptadecan-9-yl 8-((3-(3-methoxy-2,2-dimethylpropanamido)propyl)(8-(nonyloxy)-8-oxooctyl)amino)octanoate]	–	–	–	–	–	localization of protein expression (whole body imaging) (CD-1 mice): majority of protein expression was localized in the liver; luciferase activity/expression compared to MC3 LNP control (words) (CD-1 mice): two-fold lower
92.07	91.90	92.08	75.29	621.49	95.24	–	–	–	–	CCCCCCCCCOC(=O)CCCCCCCN(CCCCCCCC(=O)OC(CCCCCCCC)CCCCCCCC)CCN(C)C [Compound 14, Heptadecan-9-yl 8-((2-(dimethylamino)ethyl)(8-(nonyloxy)-8-oxooctyl)amino)octanoate]	4.91E+06	1.91E+08	4.74E+06	1.92E+08	–	luciferase activity/expression compared to MC3 LNP control (words) (CD-1 mice; 0.5 mg/kg): complete loss of delivery efficiency; luciferase activity/expression compared to MC3 LNP control (words) (CD-1 mice; listed as compound 14, 0.5 mg/kg): low levels of Luciferase expression
–	–	–	–	–	93.2	88.3	78.0	32100	17900	CCCCCCCCCOC(=O)C(C)CCCCCCN(CCO)CCCCCCCOC(=O)C(CCCCCCCC)CCCCCCCC (stereo not drawn) [Compound 163, 7-((2-Hydroxyethyl)(7-methyl-8-(nonyloxy)-8-oxooctyl)amino)heptyl 2-octyldecanoate]	–	–	–	–	3.45	–
93.17	93.86	91.81	28.69	887.91	90.9	–	–	–	–	CCCCC/C=C\C/C=C\CCCCCCCCN(CCO)CCCCCCCC(=O)OCCCCCCCCC [Compound 136, Nonyl 8-((2-hydroxyethyl)((9Z,12Z)-octadeca-9,12-dien-1-yl)amino)octanoate]	6.60E+05	1.34E+08	8.91E+05	2.77E+07	–	–
–	–	–	–	–	–	68.4	–	–	–	CCCCCCCCC(CCC)OC(=O)CCCCCCCN(CCO)CCCCCCCC(=O)OC(CCCCCCCC)CCCCCCCC (stereo not drawn) [Compound 50, dodecan-4-yl 8-((8-(heptadecan-9-yloxy)-8-oxooctyl)(2-hydroxyethyl)amino)octanoate]	–	6.30E+09	2.81E+07	1.14E+08	–	Lipid/MC3 hEPO conc. ratio, 0.2 mpk (hEPO mRNA): 3.41; Lipid/MC3 hEPO conc. ratio, 2 mpk (hEPO mRNA): 3.03; % Lipid Remaining in liver, 48 h, 2 mpk [4]: 15.9%
